Source: ChEMBL document CHEMBL4507265 (2021)

Legend:
[1] = target: Phosphatidylinositol 4,5-bisphosphate 3-kinase catalytic subunit beta isoform (Homo sapiens) (UniProt P42338); conditions: Compound concentration 1000.0 nM
[2] = test system: Receptor-type tyrosine-protein kinase FLT3 (Homo sapiens), P36888 [D835H]; conditions: Compound concentration 1000.0 nM
[3] = test system: Mast/stem cell growth factor receptor Kit (Homo sapiens), P10721 [D816H]; conditions: Compound concentration 1000.0 nM
[4] = test system: Tyrosine-protein kinase ABL1 (Homo sapiens), P00519 [Q252H]; conditions: Compound concentration 1000.0 nM
[5] = target: T1, Alpha-2A adrenergic receptor (Homo sapiens) (UniProt P08913); conditions: Compound concentration 10.0 uM
T1 sequence (whole entry): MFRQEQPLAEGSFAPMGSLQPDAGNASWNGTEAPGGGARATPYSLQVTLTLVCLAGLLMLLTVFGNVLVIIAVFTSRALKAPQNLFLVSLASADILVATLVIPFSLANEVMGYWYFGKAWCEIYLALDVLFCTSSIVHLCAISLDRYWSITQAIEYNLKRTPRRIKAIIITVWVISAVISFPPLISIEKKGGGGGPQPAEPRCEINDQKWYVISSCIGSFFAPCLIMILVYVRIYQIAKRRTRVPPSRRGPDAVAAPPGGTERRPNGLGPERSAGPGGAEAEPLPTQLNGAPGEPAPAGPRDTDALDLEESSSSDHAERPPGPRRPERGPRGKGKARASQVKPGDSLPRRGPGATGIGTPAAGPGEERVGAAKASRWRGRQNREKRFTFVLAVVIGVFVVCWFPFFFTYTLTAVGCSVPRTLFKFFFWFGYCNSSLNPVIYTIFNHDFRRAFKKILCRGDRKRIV

[6] = target: Mitogen-activated protein kinase kinase kinase 15 (Homo sapiens) (UniProt Q6ZN16); conditions: Compound concentration 1000.0 nM
[7] = target: NUAK family SNF1-like kinase 1 (Homo sapiens) (UniProt O60285); conditions: Compound concentration 1000.0 nM
[8] = target: Tyrosine-protein kinase Blk (Homo sapiens) (UniProt P51451); conditions: Compound concentration 1000.0 nM
[9] = target: Calcium/calmodulin-dependent protein kinase type 1 (Homo sapiens) (UniProt Q14012); conditions: Compound concentration 1000.0 nM
[10] = test system: eIF-2-alpha kinase GCN2 (Homo sapiens), Q9P2K8 [S808G]; conditions: Compound concentration 1000.0 nM
[11] = test system: Tyrosine-protein kinase ABL1 (Homo sapiens), P00519 [T315I]; conditions: Compound concentration 1000.0 nM
[12] = target: Cyclin-dependent kinase-like 5 (Homo sapiens) (UniProt O76039); conditions: Compound concentration 1000.0 nM
[13] = target: 5-hydroxytryptamine receptor 2C (Homo sapiens) (UniProt P28335); conditions: Compound concentration 10.0 uM
[14] = target: Ephrin type-A receptor 6 (Homo sapiens) (UniProt Q9UF33); conditions: Compound concentration 1000.0 nM
[15] = target: 5-hydroxytryptamine receptor 1B (Homo sapiens) (UniProt P28222); conditions: Compound concentration 10.0 uM
[16] = target: Mu-type opioid receptor (Homo sapiens) (UniProt P35372); conditions: Compound concentration 10.0 uM
[17] = target: Serine/threonine-protein kinase pim-3 (Homo sapiens) (UniProt Q86V86); conditions: Compound concentration 1000.0 nM
[18] = target: Mitogen-activated protein kinase kinase kinase 13 (Homo sapiens) (UniProt O43283); conditions: Compound concentration 1000.0 nM
[19] = target: Serine/threonine-protein kinase SBK1 (Homo sapiens) (UniProt Q52WX2); conditions: Compound concentration 1000.0 nM
[20] = test system: Receptor-type tyrosine-protein kinase FLT3 (Homo sapiens), P36888 [UNDEFINED MUTATION]; conditions: Compound concentration 1000.0 nM
[21] = target: Casein kinase I isoform gamma-3 (Homo sapiens) (UniProt Q9Y6M4); conditions: Compound concentration 1000.0 nM
[22] = target: Mitogen-activated protein kinase 14 (Homo sapiens) (UniProt Q16539); conditions: Compound concentration 1000.0 nM
[23] = target: Serine/threonine-protein kinase PLK3 (Homo sapiens) (UniProt Q9H4B4); conditions: Compound concentration 1000.0 nM
[24] = target: Protein kinase C delta type (Homo sapiens) (UniProt Q05655); conditions: Compound concentration 1000.0 nM
[25] = target: Tyrosine-protein kinase Tec (Homo sapiens) (UniProt P42680); conditions: Compound concentration 1000.0 nM
[26] = target: Testis-specific serine/threonine-protein kinase 1 (Homo sapiens) (UniProt Q9BXA7); conditions: Compound concentration 1000.0 nM
[27] = target: Maternal embryonic leucine zipper kinase (Homo sapiens) (UniProt Q14680); conditions: Compound concentration 1000.0 nM
[28] = target: Serine/threonine-protein kinase RIO3 (Homo sapiens) (UniProt O14730); conditions: Compound concentration 1000.0 nM
[29] = target: Bone morphogenetic protein receptor type-1A (Homo sapiens) (UniProt P36894); conditions: Compound concentration 1000.0 nM
[30] = target: Rhodopsin kinase GRK1 (Homo sapiens) (UniProt Q15835); conditions: Compound concentration 1000.0 nM
[31] = target: Beta-1 adrenergic receptor (Homo sapiens) (UniProt P08588); conditions: Compound concentration 10.0 uM
[32] = target: Tyrosine-protein kinase Mer (Homo sapiens) (UniProt Q12866); conditions: Compound concentration 1000.0 nM
[33] = target: Dual specificity mitogen-activated protein kinase kinase 5 (Homo sapiens) (UniProt Q13163); conditions: Compound concentration 1000.0 nM
[34] = target: Membrane-associated tyrosine- and threonine-specific cdc2-inhibitory kinase (Homo sapiens) (UniProt Q99640); conditions: Compound concentration 1000.0 nM
[35] = target: Cyclin-dependent kinase 15 (Homo sapiens) (UniProt Q96Q40); conditions: Compound concentration 1000.0 nM
[36] = target: Phosphorylase b kinase regulatory subunit alpha, liver isoform (Homo sapiens) (UniProt P46019); conditions: Compound concentration 1000.0 nM
[37] = target: TRAF2 and NCK-interacting protein kinase (Homo sapiens) (UniProt Q9UKE5); conditions: Compound concentration 1000.0 nM
[38] = target: RAC-gamma serine/threonine-protein kinase (Homo sapiens) (UniProt Q9Y243); conditions: Compound concentration 1000.0 nM
[39] = target: Mitogen-activated protein kinase kinase kinase 2 (Homo sapiens) (UniProt Q9Y2U5); conditions: Compound concentration 1000.0 nM

Chain of Mitogen-activated protein kinase kinase kinase 15 (Homo sapiens) (Q6ZN16 whole entry): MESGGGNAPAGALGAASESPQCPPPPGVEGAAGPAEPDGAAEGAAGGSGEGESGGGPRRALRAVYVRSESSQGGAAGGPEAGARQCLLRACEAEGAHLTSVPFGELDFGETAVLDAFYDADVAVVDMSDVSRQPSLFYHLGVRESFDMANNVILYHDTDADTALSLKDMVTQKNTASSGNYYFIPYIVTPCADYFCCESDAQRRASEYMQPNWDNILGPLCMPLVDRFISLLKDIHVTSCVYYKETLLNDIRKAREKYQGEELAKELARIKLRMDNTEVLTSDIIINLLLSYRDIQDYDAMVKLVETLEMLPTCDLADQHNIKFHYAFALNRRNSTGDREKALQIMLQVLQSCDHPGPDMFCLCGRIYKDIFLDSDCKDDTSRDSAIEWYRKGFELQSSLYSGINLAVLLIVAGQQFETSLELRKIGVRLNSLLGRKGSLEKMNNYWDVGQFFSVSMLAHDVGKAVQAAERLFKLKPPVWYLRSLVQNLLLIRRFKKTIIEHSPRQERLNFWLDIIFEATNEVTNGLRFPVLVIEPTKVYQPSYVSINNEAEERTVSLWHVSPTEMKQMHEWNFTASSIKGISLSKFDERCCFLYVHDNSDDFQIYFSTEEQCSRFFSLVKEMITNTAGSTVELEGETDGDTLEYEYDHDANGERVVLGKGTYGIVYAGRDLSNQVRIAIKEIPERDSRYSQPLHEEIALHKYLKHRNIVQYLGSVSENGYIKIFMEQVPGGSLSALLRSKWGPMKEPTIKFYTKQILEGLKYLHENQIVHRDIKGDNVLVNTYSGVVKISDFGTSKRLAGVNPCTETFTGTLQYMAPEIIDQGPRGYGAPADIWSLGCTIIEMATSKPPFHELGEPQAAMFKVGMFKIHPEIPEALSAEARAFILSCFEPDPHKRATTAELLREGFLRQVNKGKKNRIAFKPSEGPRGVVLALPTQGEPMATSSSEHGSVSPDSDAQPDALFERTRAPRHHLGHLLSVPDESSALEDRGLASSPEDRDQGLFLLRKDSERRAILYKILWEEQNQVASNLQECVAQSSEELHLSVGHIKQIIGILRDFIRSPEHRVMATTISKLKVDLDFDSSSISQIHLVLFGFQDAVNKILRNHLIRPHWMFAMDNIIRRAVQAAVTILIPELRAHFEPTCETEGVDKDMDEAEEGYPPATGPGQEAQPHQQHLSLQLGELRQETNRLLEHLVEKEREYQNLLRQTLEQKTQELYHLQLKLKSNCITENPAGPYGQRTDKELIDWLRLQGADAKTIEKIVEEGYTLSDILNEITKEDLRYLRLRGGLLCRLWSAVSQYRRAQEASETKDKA
Chain of Phosphorylase b kinase regulatory subunit alpha, liver isoform (Homo sapiens) (P46019 whole entry, canonical isoform): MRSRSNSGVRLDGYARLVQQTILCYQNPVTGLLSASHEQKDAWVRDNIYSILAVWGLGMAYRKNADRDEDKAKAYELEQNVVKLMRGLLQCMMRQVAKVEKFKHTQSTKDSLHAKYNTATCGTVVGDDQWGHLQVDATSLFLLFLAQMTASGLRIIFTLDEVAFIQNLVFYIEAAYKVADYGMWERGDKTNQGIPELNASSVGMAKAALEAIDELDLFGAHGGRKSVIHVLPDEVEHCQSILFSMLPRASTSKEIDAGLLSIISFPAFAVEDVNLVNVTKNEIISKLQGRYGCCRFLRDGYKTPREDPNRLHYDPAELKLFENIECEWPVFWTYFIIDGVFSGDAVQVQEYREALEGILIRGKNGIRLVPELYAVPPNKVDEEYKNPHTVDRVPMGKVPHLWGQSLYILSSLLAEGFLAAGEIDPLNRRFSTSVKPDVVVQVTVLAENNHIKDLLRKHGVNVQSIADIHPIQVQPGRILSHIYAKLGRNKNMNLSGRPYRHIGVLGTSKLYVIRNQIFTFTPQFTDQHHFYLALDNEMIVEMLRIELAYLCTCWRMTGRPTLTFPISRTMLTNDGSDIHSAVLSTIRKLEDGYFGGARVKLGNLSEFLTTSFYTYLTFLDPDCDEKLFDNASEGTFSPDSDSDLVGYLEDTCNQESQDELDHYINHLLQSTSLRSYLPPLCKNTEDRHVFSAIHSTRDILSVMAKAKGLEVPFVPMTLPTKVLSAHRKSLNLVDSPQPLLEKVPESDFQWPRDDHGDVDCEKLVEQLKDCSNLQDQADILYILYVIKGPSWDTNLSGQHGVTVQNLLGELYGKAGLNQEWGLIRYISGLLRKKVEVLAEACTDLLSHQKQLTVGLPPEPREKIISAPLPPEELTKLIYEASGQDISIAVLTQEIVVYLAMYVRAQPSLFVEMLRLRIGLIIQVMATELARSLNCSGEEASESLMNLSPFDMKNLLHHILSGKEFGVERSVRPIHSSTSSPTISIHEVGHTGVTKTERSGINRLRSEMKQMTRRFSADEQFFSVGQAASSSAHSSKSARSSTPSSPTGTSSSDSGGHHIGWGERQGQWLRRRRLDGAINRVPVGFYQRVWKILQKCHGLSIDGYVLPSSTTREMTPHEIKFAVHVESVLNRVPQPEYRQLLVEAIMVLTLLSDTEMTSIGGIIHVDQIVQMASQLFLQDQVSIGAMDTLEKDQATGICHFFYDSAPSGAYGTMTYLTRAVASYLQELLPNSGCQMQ
Chain of Mu-type opioid receptor (Homo sapiens) (P35372 whole entry): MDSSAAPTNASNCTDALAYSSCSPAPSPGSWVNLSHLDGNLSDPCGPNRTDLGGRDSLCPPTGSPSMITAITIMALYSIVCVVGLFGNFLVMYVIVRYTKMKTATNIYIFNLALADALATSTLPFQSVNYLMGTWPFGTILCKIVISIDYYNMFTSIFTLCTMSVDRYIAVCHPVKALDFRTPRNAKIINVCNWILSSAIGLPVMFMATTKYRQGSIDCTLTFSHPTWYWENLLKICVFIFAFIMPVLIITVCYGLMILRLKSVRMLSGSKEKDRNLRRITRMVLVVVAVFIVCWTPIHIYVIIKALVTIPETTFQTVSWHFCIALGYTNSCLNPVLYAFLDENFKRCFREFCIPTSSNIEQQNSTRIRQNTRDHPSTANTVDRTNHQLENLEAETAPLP
Chain of Rhodopsin kinase GRK1 (Homo sapiens) (Q15835 whole entry): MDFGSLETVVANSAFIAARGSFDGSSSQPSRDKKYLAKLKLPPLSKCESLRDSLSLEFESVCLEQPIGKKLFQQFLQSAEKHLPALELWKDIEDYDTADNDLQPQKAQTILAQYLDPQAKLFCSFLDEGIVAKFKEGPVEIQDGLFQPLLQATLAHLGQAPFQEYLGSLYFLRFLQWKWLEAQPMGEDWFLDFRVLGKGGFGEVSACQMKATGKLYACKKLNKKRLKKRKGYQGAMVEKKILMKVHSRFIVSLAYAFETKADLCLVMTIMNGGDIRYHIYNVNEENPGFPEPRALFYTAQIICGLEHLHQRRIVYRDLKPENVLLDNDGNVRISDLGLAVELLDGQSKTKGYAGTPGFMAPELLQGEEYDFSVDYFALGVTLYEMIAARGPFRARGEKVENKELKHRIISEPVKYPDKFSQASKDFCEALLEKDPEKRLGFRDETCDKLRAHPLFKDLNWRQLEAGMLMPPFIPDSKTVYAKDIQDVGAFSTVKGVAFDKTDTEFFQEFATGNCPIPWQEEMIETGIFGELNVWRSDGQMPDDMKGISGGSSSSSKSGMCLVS
Chain of Mast/stem cell growth factor receptor Kit (Homo sapiens), P10721 [D816H] (P10721 whole entry D816H): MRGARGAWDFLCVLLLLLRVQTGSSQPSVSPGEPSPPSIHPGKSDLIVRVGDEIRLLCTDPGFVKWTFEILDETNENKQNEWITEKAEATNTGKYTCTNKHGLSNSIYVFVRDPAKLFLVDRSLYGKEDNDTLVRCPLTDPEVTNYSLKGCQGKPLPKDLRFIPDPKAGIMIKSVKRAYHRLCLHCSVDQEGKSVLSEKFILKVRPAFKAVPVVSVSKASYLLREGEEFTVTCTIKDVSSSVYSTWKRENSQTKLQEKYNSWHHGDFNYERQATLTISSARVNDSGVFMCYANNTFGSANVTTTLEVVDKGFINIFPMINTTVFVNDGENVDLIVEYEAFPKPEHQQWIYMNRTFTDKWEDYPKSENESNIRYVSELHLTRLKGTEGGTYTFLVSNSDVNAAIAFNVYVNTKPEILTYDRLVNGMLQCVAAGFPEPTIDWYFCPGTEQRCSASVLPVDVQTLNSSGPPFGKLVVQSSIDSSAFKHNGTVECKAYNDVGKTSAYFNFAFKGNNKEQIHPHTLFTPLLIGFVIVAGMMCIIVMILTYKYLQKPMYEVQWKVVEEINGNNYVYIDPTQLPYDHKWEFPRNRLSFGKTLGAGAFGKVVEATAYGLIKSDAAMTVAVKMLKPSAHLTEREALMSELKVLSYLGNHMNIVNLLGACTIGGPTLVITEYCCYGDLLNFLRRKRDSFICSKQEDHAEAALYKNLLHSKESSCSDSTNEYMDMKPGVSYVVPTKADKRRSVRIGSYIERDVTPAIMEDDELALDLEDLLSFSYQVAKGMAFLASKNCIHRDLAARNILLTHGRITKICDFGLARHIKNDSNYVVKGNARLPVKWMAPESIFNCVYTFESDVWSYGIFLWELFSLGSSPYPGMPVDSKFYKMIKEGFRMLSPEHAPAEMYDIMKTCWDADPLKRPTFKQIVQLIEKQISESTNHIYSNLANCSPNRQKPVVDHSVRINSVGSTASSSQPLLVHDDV
Chain of Beta-1 adrenergic receptor (Homo sapiens) (P08588 whole entry, looked up): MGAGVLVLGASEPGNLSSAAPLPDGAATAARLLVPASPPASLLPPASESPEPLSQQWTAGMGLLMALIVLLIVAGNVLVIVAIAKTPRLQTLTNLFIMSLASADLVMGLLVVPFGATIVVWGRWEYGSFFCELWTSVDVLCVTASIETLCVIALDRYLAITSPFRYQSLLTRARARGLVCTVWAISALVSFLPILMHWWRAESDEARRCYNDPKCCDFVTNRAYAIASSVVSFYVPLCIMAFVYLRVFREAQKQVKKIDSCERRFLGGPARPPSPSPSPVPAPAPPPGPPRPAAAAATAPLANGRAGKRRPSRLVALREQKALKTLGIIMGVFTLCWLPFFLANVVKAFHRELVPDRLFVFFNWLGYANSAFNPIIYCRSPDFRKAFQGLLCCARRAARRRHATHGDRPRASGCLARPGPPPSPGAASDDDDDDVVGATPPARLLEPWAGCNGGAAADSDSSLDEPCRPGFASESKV

| Compound | residual activity [1] [%] | residual activity [2] [%] | residual activity [3] [%] | residual activity [4] [%] | inhibition [5] [%] | residual activity [6] [%] | residual activity [7] [%] | residual activity [8] [%] | residual activity [9] [%] | residual activity [10] [%] | residual activity [11] [%] | residual activity [12] [%] | inhibition [13] [%] | residual activity [14] [%] | inhibition [15] [%] | inhibition [16] [%] | residual activity [17] [%] | residual activity [18] [%] | residual activity [19] [%] | residual activity [20] [%] | also measured |
| --- | --- | --- | --- | --- | --- | --- | --- | --- | --- | --- | --- | --- | --- | --- | --- | --- | --- | --- | --- | --- | --- |
| NS(=O)(=O)c1cc(NC(=O)C2(c3ccccc3Cl)CC2)ccc1Oc1cccc(Cl)c1 [BAY-207] | 100 | 47 | 86 | 71 | 40.8 | 86 | 95 | 100 | 100 | 76 | 75 | 95 | 19.5 | 54 | 4.81 | 40.2 | 88 | 100 | 100 | 100 | residual activity [21]: 100%; residual activity [22]: 100%; residual activity [23]: 86%; residual activity [24]: 89%; residual activity [25]: 81%; residual activity [26]: 100%; residual activity [27]: 96%; residual activity [28]: 73%; residual activity [29]: 90%; residual activity [30]: 72%; inhibition [31]: -3.09%; residual activity [32]: 70%; residual activity [33]: 94%; residual activity [34]: 70%; residual activity [35]: 98%; residual activity [36]: 100%; residual activity [37]: 100%; residual activity [38]: 79%; residual activity [39]: 100% |
| NS(=O)(=O)c1cc(NC(=O)Cc2ccccc2)ccc1Oc1cccc(Cl)c1 [BAY-1797] | 84 | 98 | 76 | 55 | 6.31 | 100 | 100 | 68 | 90 | 100 | 88 | 83 | 55.4 | 83 | -2.93 | 19.3 | 96 | 73 | 100 | 53 | residual activity [21]: 74%; residual activity [22]: 100%; residual activity [23]: 87%; residual activity [24]: 100%; residual activity [25]: 96%; residual activity [26]: 100%; residual activity [27]: 59%; residual activity [28]: 73%; residual activity [29]: 69%; residual activity [30]: 83%; inhibition [31]: 14.3%; residual activity [32]: 82%; residual activity [33]: 88%; residual activity [34]: 96%; residual activity [35]: 88%; residual activity [36]: 100%; residual activity [37]: 93%; residual activity [38]: 100%; residual activity [39]: 84% |
